Assay results as given in ChEMBL document CHEMBL4052585 (J Med Chem, 2017).
Converted amounts (≈) assume the structure as drawn.

Experiments:
[1] = molecular target: T1, Mitogen-activated protein kinase kinase kinase 14 (Homo sapiens, UniProt Q99558); test: Inhibition of NIK (unknown origin) after 1 to 2 hrs by ADP-FP assay
[2] = physchem; conditions: buffer, pH 7.4
[3] = molecular target: PI3-kinase p110-delta/p85-alpha (Homo sapiens, UniProt O00329); test: Inhibition of N-terminal His6-tagged recombinant full-length human p110delta/untagged recombinant full length human p85alpha expressed in baculovirus infected Sf21 insect cells using PIP2:3PS lipid substrate after 120 mins by ADP-Glo assay
PI3-kinase p110-delta/p85-alpha, sequence (P27986 whole entry): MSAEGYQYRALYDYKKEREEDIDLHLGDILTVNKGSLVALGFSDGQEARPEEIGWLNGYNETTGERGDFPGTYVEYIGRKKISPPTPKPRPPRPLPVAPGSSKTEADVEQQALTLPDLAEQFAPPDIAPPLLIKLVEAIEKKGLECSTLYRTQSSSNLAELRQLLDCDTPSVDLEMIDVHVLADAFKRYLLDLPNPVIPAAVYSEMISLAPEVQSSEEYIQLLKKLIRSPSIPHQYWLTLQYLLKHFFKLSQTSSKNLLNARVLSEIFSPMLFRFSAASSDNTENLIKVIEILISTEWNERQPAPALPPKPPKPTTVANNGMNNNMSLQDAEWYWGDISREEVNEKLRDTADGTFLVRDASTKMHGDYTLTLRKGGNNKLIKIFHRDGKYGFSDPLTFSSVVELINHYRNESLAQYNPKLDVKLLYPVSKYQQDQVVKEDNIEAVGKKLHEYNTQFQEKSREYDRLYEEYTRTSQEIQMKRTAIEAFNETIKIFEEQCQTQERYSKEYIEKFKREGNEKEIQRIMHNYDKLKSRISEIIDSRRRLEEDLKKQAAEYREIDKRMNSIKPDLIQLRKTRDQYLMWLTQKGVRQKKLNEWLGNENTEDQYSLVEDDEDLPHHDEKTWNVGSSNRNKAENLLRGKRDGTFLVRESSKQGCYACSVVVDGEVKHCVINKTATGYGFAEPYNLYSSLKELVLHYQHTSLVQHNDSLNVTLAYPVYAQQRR
PI3-kinase p110-delta/p85-alpha, sequence (O00329 whole entry): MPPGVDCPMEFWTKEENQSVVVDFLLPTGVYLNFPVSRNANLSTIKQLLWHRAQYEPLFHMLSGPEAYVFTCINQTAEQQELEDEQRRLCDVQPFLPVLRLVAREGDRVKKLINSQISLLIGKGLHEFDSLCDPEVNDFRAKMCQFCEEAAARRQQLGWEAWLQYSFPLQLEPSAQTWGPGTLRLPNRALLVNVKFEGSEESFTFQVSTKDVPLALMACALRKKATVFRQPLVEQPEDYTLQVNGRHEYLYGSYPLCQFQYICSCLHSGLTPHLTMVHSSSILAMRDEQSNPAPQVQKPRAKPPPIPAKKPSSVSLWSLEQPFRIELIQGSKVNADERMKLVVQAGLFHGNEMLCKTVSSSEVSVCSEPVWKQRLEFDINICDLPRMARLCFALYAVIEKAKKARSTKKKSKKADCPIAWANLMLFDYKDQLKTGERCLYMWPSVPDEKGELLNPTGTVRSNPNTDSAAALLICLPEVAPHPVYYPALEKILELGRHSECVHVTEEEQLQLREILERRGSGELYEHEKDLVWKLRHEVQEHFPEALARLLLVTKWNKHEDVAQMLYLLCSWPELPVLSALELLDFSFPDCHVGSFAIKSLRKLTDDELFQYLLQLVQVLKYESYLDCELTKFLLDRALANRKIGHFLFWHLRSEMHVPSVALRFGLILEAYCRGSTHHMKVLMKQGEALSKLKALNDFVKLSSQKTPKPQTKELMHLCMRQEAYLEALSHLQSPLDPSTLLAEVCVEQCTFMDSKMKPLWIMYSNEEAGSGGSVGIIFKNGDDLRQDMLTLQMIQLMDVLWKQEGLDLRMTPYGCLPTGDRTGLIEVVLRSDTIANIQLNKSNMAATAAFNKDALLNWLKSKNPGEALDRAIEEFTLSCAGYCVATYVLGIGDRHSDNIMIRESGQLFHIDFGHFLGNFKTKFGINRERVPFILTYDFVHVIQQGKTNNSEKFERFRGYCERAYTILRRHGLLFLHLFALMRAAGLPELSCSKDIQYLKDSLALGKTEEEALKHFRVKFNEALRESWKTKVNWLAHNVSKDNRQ

[4] = molecular target: T1, Mitogen-activated protein kinase kinase kinase 14; test: Inhibition of NIK (unknown origin) expressed in HEK293 cells assessed as decrease in NFkappaB signal after 24 hrs by dual glo luciferase reporter gene assay; assay type: cell-based
[5] = test system: HEK293; test: Cytotoxicity against HEK293 cells assessed as effect on cell viability after 24 hrs by HSV-TK reporter assay; assay type: cell-based; conditions: Homo sapiens, HEK293, 24 h
[6] = molecular target: T1, Mitogen-activated protein kinase kinase kinase 14; test: Inhibition of NIK in human HeLa cells assessed as decrease in antilymphotoxin-beta receptor antibody-stimulated p52 translocation from cytoplasm to nucleus after 5 hrs; assay type: cell-based
[7] = Apparent permeability across MDCK cells at 100 uM; assay type: ADME, cell-based, Canis lupus familiaris; conditions: dog
[8] = Thermodynamic solubility of compound at pH 7.4; assay type: physicochemical; conditions: buffer, read-out: Therm_solubility
[9] = Protein binding in human plasma; assay type: ADME, cell-free; conditions: read-out: PPB (converted)
[10] = Plasma clearance in Sprague-Dawley rat; assay type: ADME
[11] = Volume of distribution in Sprague-Dawley rat; assay type: ADME; conditions: in vivo
[12] = Oral bioavailability in Sprague-Dawley rat at 5 mg/kg; assay type: ADME, organism-based; conditions: in vivo
[13] = Plasma clearance in cynomolgus monkey; assay type: ADME, Macaca fascicularis
[14] = Volume of distribution in cynomolgus monkey; assay type: ADME, Macaca fascicularis; conditions: in vivo
[15] = Plasma clearance in beagle dog; assay type: ADME, Canis lupus familiaris
[16] = Volume of distribution in beagle dog; assay type: ADME, Canis lupus familiaris; conditions: in vivo
[17] = Oral bioavailability in beagle dog at 5 mg/kg; assay type: ADME, organism-based, Canis lupus familiaris; conditions: in vivo
[18] = molecular target: T1, Mitogen-activated protein kinase kinase kinase 14; test: Binding affinity to NIK (unknown origin) by SPR method

T1 sequence (Q99558 whole entry): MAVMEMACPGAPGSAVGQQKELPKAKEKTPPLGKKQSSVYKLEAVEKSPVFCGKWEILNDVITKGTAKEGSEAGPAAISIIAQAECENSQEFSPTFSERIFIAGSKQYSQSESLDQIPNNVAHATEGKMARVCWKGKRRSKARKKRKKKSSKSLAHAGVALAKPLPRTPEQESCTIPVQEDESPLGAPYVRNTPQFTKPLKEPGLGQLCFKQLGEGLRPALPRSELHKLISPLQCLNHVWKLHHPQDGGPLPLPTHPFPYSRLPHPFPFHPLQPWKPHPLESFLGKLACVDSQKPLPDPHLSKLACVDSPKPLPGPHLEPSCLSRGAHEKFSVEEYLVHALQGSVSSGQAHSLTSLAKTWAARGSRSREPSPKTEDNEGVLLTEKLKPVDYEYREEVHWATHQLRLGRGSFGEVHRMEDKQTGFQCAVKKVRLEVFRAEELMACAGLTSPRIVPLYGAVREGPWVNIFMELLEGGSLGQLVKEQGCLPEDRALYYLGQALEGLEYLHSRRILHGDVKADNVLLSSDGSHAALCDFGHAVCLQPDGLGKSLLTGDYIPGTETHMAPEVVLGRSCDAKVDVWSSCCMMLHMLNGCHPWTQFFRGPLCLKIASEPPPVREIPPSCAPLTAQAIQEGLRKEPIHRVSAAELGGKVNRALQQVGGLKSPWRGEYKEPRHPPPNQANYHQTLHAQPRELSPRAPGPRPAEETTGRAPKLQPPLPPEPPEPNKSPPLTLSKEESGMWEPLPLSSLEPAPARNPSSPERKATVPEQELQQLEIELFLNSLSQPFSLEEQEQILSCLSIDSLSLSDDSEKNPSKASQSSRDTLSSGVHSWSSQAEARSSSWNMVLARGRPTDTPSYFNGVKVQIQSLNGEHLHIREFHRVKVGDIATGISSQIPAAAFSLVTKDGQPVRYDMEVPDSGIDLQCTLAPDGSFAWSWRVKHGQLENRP

SMILES	Ki [1] [nM]	logD [2]	Ki [3] [nM]	also measured
NC(=O)c1ccc2c(n1)-c1sccc1CCO2	1280	2.5		
CN1CCCC(O)(C#Cc2cc3c(cc2F)OCCn2cc(C(N)=O)nc2-3)C1=O (racemic)	3	1.5		
CN1CC[C@](O)(C#Cc2cc3c(cc2F)OCCn2cc(C(N)=O)nc2-3)C1=O		0.94		
CC(O)(C#Cc1cc2c(cc1F)OCCn1cc(C(N)=O)nc1-2)c1cccnn1 (racemic)	3.2	1.4		
CN(C)C(=O)C(C)(O)C#Cc1cc2c(cc1F)OCCn1cc(C(N)=O)nc1-2 (centres undefined)	986	1.4		
CC(C)(O)C#Cc1cc2c(cc1F)OCCn1c-2nc(C(N)=O)c1C#N	201	1.6	> 1000	
CC(C)(O)C#Cc1cc2c(cc1F)OCCn1cc(C(N)=O)nc1-2	36	1.7		
CC(C)(O)C#Cc1ccc2c(c1)-c1nc(C(N)=O)cn1C1CC2C1	20		> 1000	
CC(O)(C#Cc1cc2c(cc1F)OCCn1cc(C(N)=O)nc1-2)c1nccs1 (racemic)	1.5	2.4		
NC(=O)c1cn2c(n1)-c1cc(C#CC3(O)COC3)c(F)cc1OCC2	4280	1.2		
CC(C)(O)C#Cc1ccc2c(c1)-c1nc(C(N)=O)cn1CCO2	310	1.4	320	
Cc1cc([C@](C)(O)C#Cc2cc3c(cc2F)C2CC(C2)n2cc(C(N)=O)nc2-3)no1	0.4	3.3	> 1000	IC50 [4]: 102 nM; IC50 [5]: > 20000 nM; IC50 [6]: 199 nM; Papp at 100 µM [7]: 10.1 ×10⁻⁶ cm/s; solubility thermodynamic [8]: 32 µg/mL (≈ 78.7 µM); fraction unbound [9]: 0.09; clearance [10]: 24 mL/min/kg; Vd [11]: 0.84 L/kg; bioavailability [12]: 27%; clearance [13]: 13 mL/min/kg; Vd [14]: 1.9 L/kg
CC(C)(O)C#Cc1cc2c(cc1F)OCCn1c-2nc(C(N)=O)c1-c1cn[nH]c1	7	1.8	> 1000	
CC(C)(O)C#Cc1cc2c(cc1F)OCCn1c-2nc(C(N)=O)c1Cc1ccccc1F	7.5	3.4	> 1000	
CN1CC[C@@](O)(C#Cc2cc3c(cc2F)OCCn2cc(C(N)=O)nc2-3)C1=O		0.74		
CC(C)(O)C#Cc1ccc2c(c1)-c1nc(C(N)=O)sc1CCO2	28	2.4	216	

SMILES	Ki [1] [nM]	logD [2]	Ki [3] [nM]	also measured
CC(C)(O)C#Cc1ccc2c(c1)-c1nc(C(N)=O)sc1C(O)CO2 (racemic)	101		> 1000	
CNC(=O)c1c(C(N)=O)nc2n1CCOc1ccc(C#C[C@@](C)(O)c3cc(C)on3)cc1-2	0.47	3	> 1000	IC50 [4]: 40 nM; IC50 [5]: 13000 nM; IC50 [6]: 67 to 87 nM; Papp at 100 µM [7]: 7.5 ×10⁻⁶ cm/s; solubility thermodynamic [8]: 9 µg/mL (≈ 20.7 µM); fraction unbound [9]: 0.06; clearance [10]: 7 mL/min/kg; Vd [11]: 1.4 L/kg; bioavailability [12]: 51%; clearance [13]: 21 mL/min/kg; Vd [14]: 0.9 L/kg; clearance [15]: 7 mL/min/kg; Vd [16]: 1.1 L/kg; bioavailability [17]: 140%
CC(C)(O)C#Cc1cc2c(cc1F)OCCn1c-2nc(C(N)=O)c1C1CC1	41	1.9	> 1000	
CC(C)(O)C#Cc1ccc2c(c1)-c1nc(C(N)=O)sc1C(F)(F)CO2	40		> 1000	
Cn1nccc1Cc1c(C(N)=O)nc2n1CCOc1cc(F)c(C#CC(C)(C)O)cc1-2	9.9		> 1000	
C[C@@H]1Cn2cc(C(N)=O)nc2-c2cc(C#CC(C)(C)O)ccc2O1			> 1000	
CC(C)(O)C#Cc1cc2c(cc1F)C1CC(C1)n1cc(C(N)=O)nc1-2	2.9		> 1000	
CNC(=O)c1c(C(N)=O)nc2n1CCOc1cc(F)c(C#CC(C)(C)O)cc1-2	2	2.5	> 1000	
CC(O)(C#Cc1cc2c(cc1F)OCCn1cc(C(N)=O)nc1-2)CF (racemic)	8.7			
C[C@H]1Cn2cc(C(N)=O)nc2-c2cc(C#CC(C)(C)O)ccc2O1			> 1000	
CN(C)C(=O)c1c(C(N)=O)nc2n1CCOc1cc(F)c(C#CC(C)(C)O)cc1-2		1.4	> 1000	
NC(=O)c1cccn1Cc1ccccc1Cl				Kd [18]: 69000 nM
Cc1cc([C@](C)(O)C#Cc2cc3c(cc2F)OCCn2cc(C(N)=O)nc2-3)no1		1.1	47	IC50 [4]: 156 nM; IC50 [5]: > 20000 nM; IC50 [6]: 607 nM
NC(=O)c1cn2c(n1)-c1cc(C#CC3(O)CCC3)c(F)cc1OCC2	20.2	3.4		
Cc1c(C(N)=O)nc2n1CCOc1cc(F)c(C#CC(C)(C)O)cc1-2	35.5	2.2	> 1000	
